# Source: PMC10333465, “Multi-Function of a New Bioactive Secondary Metabolite Derived from Endophytic Fungus Colletotrichum acutatum of Angelica sinensis” (Journal of Microbiology and Biotechnology, 2022)
# Experiments:
# Format in all cases: biochemical
# α-amylase = test: colorimetric starch/DNS enzyme assay
# α-glucosidase = test: colorimetric pNPG enzyme assay
# [1] = target: T1, DNA topoisomerase I (Human Top I) (Homo sapiens, UniProt P11387); test: pBR322 supercoiled DNA relaxation assay, agarose gel ([…])
# T1 construct: gene TOP1
# T1 sequence (P11387 2-765): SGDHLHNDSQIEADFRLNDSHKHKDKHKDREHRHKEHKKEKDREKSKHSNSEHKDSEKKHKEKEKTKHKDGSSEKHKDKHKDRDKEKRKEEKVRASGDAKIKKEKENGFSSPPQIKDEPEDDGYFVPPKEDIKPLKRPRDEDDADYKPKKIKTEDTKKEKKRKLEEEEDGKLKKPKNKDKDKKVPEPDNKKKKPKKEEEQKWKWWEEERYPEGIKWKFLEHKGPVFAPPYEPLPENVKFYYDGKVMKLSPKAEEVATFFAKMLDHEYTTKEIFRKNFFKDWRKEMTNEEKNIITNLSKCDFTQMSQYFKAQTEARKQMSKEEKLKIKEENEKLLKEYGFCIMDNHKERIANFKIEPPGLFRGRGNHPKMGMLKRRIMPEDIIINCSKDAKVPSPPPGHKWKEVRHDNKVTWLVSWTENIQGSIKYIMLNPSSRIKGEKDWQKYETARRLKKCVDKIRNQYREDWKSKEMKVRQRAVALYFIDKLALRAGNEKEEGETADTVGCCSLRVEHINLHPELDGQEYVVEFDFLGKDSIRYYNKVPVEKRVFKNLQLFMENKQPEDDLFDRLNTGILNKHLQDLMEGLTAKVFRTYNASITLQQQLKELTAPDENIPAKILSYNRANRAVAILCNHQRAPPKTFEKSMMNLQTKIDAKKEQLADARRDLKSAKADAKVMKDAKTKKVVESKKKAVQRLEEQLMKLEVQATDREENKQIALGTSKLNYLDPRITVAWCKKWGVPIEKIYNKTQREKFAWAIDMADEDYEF
smiles,measurement,setting,value
"CCCC(O)c1coc(=O)c(C)c1OC (stereo not drawn) [C-HMMP, 5-(1-hydroxybutyl)-4-methoxy-3-methyl-2H-pyran-2-one]",IC50,α-amylase,118.6 µg/mL
same,IC50,α-glucosidase,144.7 µg/mL
same,"pBR322 supercoiled DNA relaxation assay, agarose gel (50, 150, 250 μg/ml)",[1],~ 250 μg/ml
